Results published in patent EP0839799A1, “2-HYDROXYPHENYLALKYLAMINE DERIVATIVES AND MAILLARD REACTION INHIBITORS” (KISSEI PHARMACEUTICAL CO., LTD., priority 1995, dated 1996).

Assays:
lysozyme = assay: Maillard reaction inhibiting activity test (lysozyme and fructose, dimer formation by SDS-PAGE/densitometry); type: biochemical; details: lysozyme 10 mg/ml, fructose 200mM, 0.5M sodium phosphate buffer pH7.4, 37°C, 1 week, inhibition of lysozyme dimer formation; for Inhibiting Activity (%) Concentration (0.2mM): test compound 0.2mM; for Inhibiting Activity (%) Concentration (2mM): test compound 2mM
Experimental: The test compound (0.2mM or 2mM), lysozyme (lOmg/ml) and fructose (200mM) were dissolved in 0.5M sodium phosphate buffer (pH7.4), and the solution was incubated at 37°C for l week. After incubation, the sample was separated by SDS-PAGE and stained with Coomassie Brilliant Blue R-250. The percentage of formed dimer to total proteins was measured by densitometry. Inhibiting activities of the test compounds were evaluated from comparing the percentage of formed dimer in the presence of the test compound with that in the absence of the test compound.

[1] = test system: AGE content in plasma proteins; assay: Inhibition assay for AGE formation in vivo (AGE content in plasma proteins by ELISA using anti-AGE antibody); parameters: species or system male SD rats; details: STZ-induced diabetic rats, 4 weeks, relative to untreated rats (as 100% control)
Experimental: Diabetes was induced in male SD rats, 6 weeks of age, by intravenous single injection of streptozotocin (STZ) (50mg/kg) into tail. One week after diabetes induction, α -amino-2-hydroxyphenylacetic acid.hydrochloride or aminoguanidine was given to the diabetic rats by daily oral administration at dosage of 50mg/kg or lOOmg/kg. After 4 weeks of administration, blood samples were collected and AGE content in plasma proteins was measured by ELISA using anti-AGE antibody. AGE content in drug-treated rats were estimated compared with the average content of untreated rats (as 100% control).

Male SD rats [2] = assay: Toxicity test by long-term administration; type: in vivo
Experimental: Male SD rats, 6 weeks of age, received STZ (50mg/kg) by single intravenous injection into the tail and were made diabetic. One week after STZ injection, α -amino-2-hydroxyphenylacetic acid-hydrochloride suspended in 0.5% of CMC was given to the diabetic rats by daily oral administration at a dosage of lOOmg/kg. Rats in the control group received O.5% of CMC alone. Compared with the control group, significant reduction in weight and significant increase in number of dead animals were not observed until ten weeks after administration.

Male SD rats [3] = assay: Acute toxicity test; type: in vivo; details: for hematological examinations / death: 2000 mg/kg; for death: single administration 2000 mg/kg, until 7 days after administration
Experimental: Male SD rats, 6 weeks of age and weighing between 140g and 165 g, were conditioned to an overnight fast. α -Amino-2 hydroxyphenylacetic acid.hydrochloride suspended in 0.5% of CMC were given to the rats at a dosage of 2000 mg/kg. Control group rats received 0.5% of CMC alone.
Six hours after administration, all rats were allowed free access to food and water. Seven days after administration, blood samples were collected and tested with hematological examinations. Plasma samples were tested with blood biochemical examinations.

[4] = STZ diabetic rats, 100mg/kg daily oral, until ten weeks, versus control group

SMILES | Inhibiting Activity (%) Concentration (0.2mM) (lysozyme) | Inhibiting Activity (%) Concentration (2mM) (lysozyme) | other results
NC(C(=O)O)c1ccccc1O (single isomer, unassigned) [Example 12, α -Amino-2-hydroxyphenylacetic acid (optical isomer)] | 22.4% | 83.5% | –
NC(C(=O)O)c1ccccc1O (single isomer, unassigned) [Example 13, α -Amino-2-hydroxyphenylacetic acid (optical isomer)] | 24.0% | 86.3% | –
Cl.NC(C(=O)O)c1ccccc1O (stereo not drawn) [Example 1, α -Amino-2-hydroxyphenylacetic acid.hydrochloride] | 21.2% | 86.1% | AGE content ([1]; 50 mg/kg daily oral): 81.6%; AGE content ([1]; 100mg/kg daily oral): 62.4%; increase in number of dead animals (Male SD rats [2]; [4]): not observed; reduction in weight (Male SD rats [2]; [4]): not observed; toxicity and side effects (Male SD rats [2]; rats, 100mg/kg/day for ten consecutive weeks): significant toxicity and side effects were not observed; blood biochemical examinations (Male SD rats [3]; 2000 mg/kg single dose, seven days after administration, versus control group): no significant difference was observed; hematological examinations (Male SD rats [3]; 2000 mg/kg single dose, seven days after administration, versus control group, listed as α -Amino-2 hydroxyphenylacetic acid.hydrochloride): no significant difference was observed; hematological examinations (Male SD rats [3]; 2000 mg/kg single dose, seven days after administration, versus control group, listed as α -amino-2-hydroxyphenylacetic acid hydrochloride): a significant effect was not observed; behavior disorder (Male SD rats [3]; 2000 mg/kg single dose, until 6 hours after administration): behavior disorder was not observed; death (Male SD rats [3]; listed as α -Amino-2 hydroxyphenylacetic acid.hydrochloride): all animals did not die; death (Male SD rats [3]; listed as α -amino-2-hydroxyphenylacetic acid hydrochloride): no death was observed
COC(=O)C(N)c1ccccc1O.Cl (stereo not drawn) [Example 2, Methyl α -amino-2-hydroxyphenylacetate-hydrochloride] | 30.6% | 67.5% | –
Cl.NC(C(=O)O)c1cc(Cl)ccc1O (stereo not drawn) [Example 3, α -Amino-5-chloro-2-hydroxyphenylacetic acid-hydrochloride] | 38.8% | 88.4% | –
COc1ccc(O)c(C(N)C(=O)O)c1.Cl (stereo not drawn) [Example 4, α -Amino-2-hydroxy-5-methoxyphenylacetic acid-hydrochloride] | 30.9% | 87.4% | –
COC(=O)C(N)c1cc(O)ccc1O (stereo not drawn) [Example 5, Methyl α -amino-2,5-dihydroxyphenylacetate] | – | 48.3% | –
CN(C)C(=O)C(N)c1ccccc1O (stereo not drawn) [Example 6, N,N-Dimethyl-α -amino-2-hydroxyphenylacetamide] | 13.0% | 82.1% | –
NC(=O)C(N)c1ccccc1O (stereo not drawn) [Example 7, α -Amino-2-hydroxyphenylacetamide] | 38.7% | 89.3% | –
Cl.NC(C(=O)NCc1ccccc1)c1ccccc1O (stereo not drawn) [Example 8, N-Benzyl-α-amino-2-hydroxyphenylacetamide-hydrochloride] | 13.9% | 55.3% | –
Cl.NC(C(=O)NCCc1ccccc1)c1ccccc1O (stereo not drawn) [Example 9, N-(2-Phenethyl)-α-amino-2-hydroxyphenylacetamidehydrochloride] | – | 80.0% | –
NC(CC(=O)O)c1ccccc1O (centres unmarked) [Example 10, 3-Amino-3-(2-hydroxyphenyl)propionic acid] | 15.0% | – | –
Cl.NC(=O)C(N)c1ccccc1O (stereo not drawn) [Example 14, α -Amino-2-hydroxyphenylacetamide-hydrochloride] | 21.4% | 87.6% | –
CC(C)OC(=O)CCC(N)c1ccccc1O.Cl (centres unmarked) [Example 15, Isopropyl 4-amino-4-(2-hydroxyphenyl)butyrate.hydrochloride] | 2.7% | – | –
N=C(N)NN [aminoguanidine, reference compound] | 2.9% | 17.2% | AGE content ([1]; aminoguanidine daily oral, dose not stated in the table (50mg/kg or 100mg/kg per method)): 88.8%
